{"source": "patent US20190183843A9", "about": "“USE OF DIANHYDROGALACTITOL OR DERIVATIVES OR ANALOGS THEREOF FOR TREATMENT OF PEDIATRIC CENTRAL NERVOUS SYSTEM MALIGNANCIES” (DelMar Pharmaceuticals, Inc., priority 2015, published 2019)", "key": {"[1]": {"test_system": "A2780 cells", "assay": "MTT growth inhibition assay, 5-day drug exposure", "format": "cell-based, human", "settings": "5-day exposure, cisplatin-sensitive A2780", "text": "(§1) The analysis of cytotoxicity, depicted as IC50 (concentration inhibiting growth of cells by 50%) or as fraction of cells affected (Fa) at a specified concentration of drug, is based on the data generated from the MTT growth inhibition assay following a 5-day drug exposure period. The IC50 values were generated by fitting Fa values from a range of drug concentrations to a four-parameter logistic dose-response sigmoidal equation using the Graphpad Prism v.6 software. Resistance factors (for the ovarian panel) were calculated as the ratio of IC50 in the specific tumor model to the IC50 in A2780.\n(§2) Cytotoxicity was determined against cisplatin-sensitive A2780 and cisplatin-resistant 2780CP-16, OVCAR-10, Hey and OVCA-433 tumor models with different status for p53 and mismatch repair (MMR) DNA repair system (A2780: p53 wild-type, MMR proficient; 2780CP-16: heterogenic p53 wt/V172Fmut, MMR deficient; OVCAR-10: p53 V172F mutant, MMR proficient; HEY: p53 P72R mutant, MMR proficient; OVCA-433: p53 P72R mutant, MMR proficient). IC50 for dianhydrogalactitol was about 0.5 μM in A2780 cells and in the 2-4 μM range for the cisplatin-resistant models. The activity (as IC50) of dianhydrogalactitol relative to cisplatin and oxaliplatin is shown as bar plots in FIG. 38. […] Oxaliplatin, in contrast, had good potencies against both cisplatin-sensitive (0.2 μM) and cisplatin-resistant cells (0.2-0.6 μM)."}, "[2]": {"test_system": "cisplatin-resistant 2780CP-16, OVCAR-10, Hey and OVCA-433 tumor models", "assay": "MTT growth inhibition assay, 5-day drug exposure", "format": "cell-based, human", "settings": "5-day exposure", "text": "as §1, §2"}, "[3]": {"settings": "cited from earlier work"}, "[4]": {"test_system": "MGMT-positive or -negative, MMR-proficient or -deficient cells", "settings": "cited from earlier work"}, "[5]": {"molecular_target": "glycogen synthase kinase-30 (GSK-30) (Homo sapiens, UniProt P49841)", "sequence (P49841 whole entry)": "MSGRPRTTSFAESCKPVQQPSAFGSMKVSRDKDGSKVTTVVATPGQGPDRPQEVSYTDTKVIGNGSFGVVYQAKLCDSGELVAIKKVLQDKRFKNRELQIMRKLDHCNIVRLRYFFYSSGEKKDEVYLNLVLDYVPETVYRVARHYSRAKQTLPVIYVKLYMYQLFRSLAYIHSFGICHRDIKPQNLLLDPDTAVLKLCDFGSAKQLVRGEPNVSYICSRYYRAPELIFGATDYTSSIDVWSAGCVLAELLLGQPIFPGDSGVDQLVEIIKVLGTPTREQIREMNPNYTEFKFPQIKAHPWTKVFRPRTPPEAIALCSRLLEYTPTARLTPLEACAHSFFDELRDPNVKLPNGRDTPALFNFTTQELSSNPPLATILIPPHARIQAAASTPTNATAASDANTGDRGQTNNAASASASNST", "settings": "cited from earlier work"}}, "note": "pIC50: −log10 of the molar value. Read-outs that look alike come from different tables or passages of the source."}
{"smiles": "O=C1[O][Pt]2([NH][C@@H]3CCCC[C@H]3[NH]2)[O]C1=O", "note": "[oxaliplatin, reference compound]", "values": [{"measurement": "pIC50", "setting": "[1]", "result": 6.70}, {"measurement": "pIC50", "setting": "[2]", "result": "6.22 to 6.70"}]}
{"smiles": "O[C@H]([C@H](O)[C@@H](O)CBr)[C@H](O)CBr", "note": "[dibromodulcitol]", "values": [{"measurement": "absorption by the oral route", "setting": "[3]", "result": "rapid and fairly complete"}]}
{"smiles": "N.N.[Cl][Pt][Cl]", "note": "[cisplatin]", "values": [{"measurement": "pIC50", "setting": "[2]", "result": "5.10 to 5.52"}, {"measurement": "sensitivity", "setting": "[4]; MGMT Negative, MMR-Deficient", "result": "Resistant"}, {"measurement": "sensitivity", "setting": "[4]; MGMT Negative, MMR-Proficient", "result": "Sensitive"}, {"measurement": "sensitivity", "setting": "[4]; MGMT Positive, MMR-Deficient", "result": "Resistant"}, {"measurement": "sensitivity", "setting": "[4]; MGMT Positive, MMR-Proficient", "result": "Sensitive"}]}
{"smiles": "CN1C(=O)/C(=C2/C(=O)Nc3ccccc32)c2ccccc21", "note": "[Meisoindigo]", "values": [{"measurement": "concentration inhibiting GSK", "setting": "[5]", "result": "5 to 50", "unit": "nM"}]}
